Assay results from patent publication US12383562B2, “Application of metal complex” (Hunan Fangshengtai Medical Technology Co., Ltd., priority 2019, dated 2025).

Test system: mice with inflammatory pain
Experiment: Analgesic activity: CFA-induced inflammatory pain in mice, Von Frey test (paw withdrawal threshold)
Format: in vivo, Kunming mice
Details: for response to the compound (pain threshold): CFA mice, intraperitoneal administration, approximately 0.03 mmol/kg (9, 10 or 11 mg/kg), seven mice; for change of paw withdrawal threshold after injection of drug: drug injected 24 hours after CFA, mice with inflammatory pain
Experimental: The analgesic assays of three vanadium compounds (bis(maltolato)oxovanadium, bis(ethylmaltolato)oxovanadium, and bis(kojato)oxovanadium) in mice are presented below. Some of the results are shown in FIG. 1, where S1 is bis(maltolato)oxovanadium, S2 is bis(ethylmaltolato)oxovanadium, S3 is bis(kojato)oxovanadium, and thepositive group (i.e., a positive control group) is aspirin group.
10 μl of complete Freund's adjuvant (CFA) was injected subcutaneously into the plantar surface of the left hindpaws of mice (♂ Kunming mice, 22-40 g) to produce inflammation. Von Frey tests were performed at 24 hours after injection or later to determine pain thresholds, i.e., under the guidance of a Dixon's Up-Down method, mice were induced with Von Frey fibers to have mechanical withdrawal of their hindpaws data were collected, and their 50% paw withdrawal thresholds (referred to as paw withdrawal threshold or PWT), namely the pain thresholds, were calculated. Afterwards, the mice were divided into a physiological saline group, a positive control group and a drug group, and injected intraperitoneally with 0.4 ml of physiological saline, 0.4 ml of aspirin (acetylsalicylic acid, or ASA) Tris-buffer solution at a concentration of 20 mg/ml and a mixed solution of a tested compound and 0.4 ml of cellulose solution (1%), respectively. Then, changes in the pain threshold were monitored with the Von Frey tests.

Structure (SMILES) | response to the compound (pain threshold) | change of paw withdrawal threshold after injection of drug
Cc1occc(=O)c1[O][V](=[O])[O]c1c(C)occc1=O [S1, bis(maltolato)oxovanadium(IV)] | all seven mice showed a response to the compound with a general increase in pain threshold | significant increase in the paw withdrawal threshold
CCc1occc(=O)c1[O][V](=[O])[O]c1c(CC)occc1=O [S2, bis(ethylmaltolato)oxovanadium(IV)] | all seven mice showed a response to the compound with a general increase in pain threshold | significant increase in the paw withdrawal threshold
[O]=[V-2]12([O]C3=COC(CO)=CC3=[O+]1)[O]C1=COC(CO)=CC1=[O+]2 [S3, bis(kojato)oxovanadium(IV)] | all seven mice showed a response to the compound with a general increase in pain threshold | significant increase in the paw withdrawal threshold
